Experiment [1] addresses T1, p38alpha (Homo sapiens, UniProt Q16539).
T1 construct: purchased Invitrogen PV3304
The experiment can be described thus: P38alpha enzyme inhibition assay (Alphascreen kinase activity assay). The note with it: 100 pM p38alpha, 250 μM ATP, 2 hours pre-incubation at 25° C., ATF-2 fusion protein substrate; read-out: p38α inhibition (IC50 values). The format is biochemical. On the procedure: P38alpha Enzyme Inhibition Assay.
The inhibitory activity of compounds was determined using an Alphascreen® (Perkin Elmer) based kinase activity assay. Kinase reactions consisted of 25 mM HEPES pH 7.5, 10 mM MgCl2, 100 μM Na3VO4, 2 mM DTT, 0.05 mg/ml Tween 20, 100 pM p38alpha (Invitrogen, PV3304), 1% DMSO and 0.3 μg/ml ATF-2 fusion protein (New England Biolabs, 9224). Compounds were incubated under these conditions for 2 hours, at 25° C., prior to the initiation of the kinase activity by the addition of the 250 μM ATP. Reaction volumes were 20 uL. After 1 hr at 25° C. reactions were stopped by the adding 10 uL of 25 mM HEPES pH 7.5 containing 62.5 mM EDTA, 0.05% Triton X-100, 10% BSA and 0.83 ng/uL anti-phospho-ATF2 antibody (Abeam, ab28812). Detection was performed by measuring luminescence following the addition of Alphascreen Donor beads (Perkin Elmer 6765300) and Protein A Alphascreen Acceptor beads (Perkin Elmer 6760137), both at a final concentration of 20 ug/ml. IC50 values were determined from concentration-response curves.
Background: Bead proximity is the source of the signal in Alpha formats.

The subject of experiment [2] is LPS-stimulated PBMC TNFα release. The experiment can be described thus: LPS-stimulated PBMC TNFα release assay. Format: cell-based. The note with it: human PBMCs, LPS 10 ng/ml, 18 h, TNFα by ELISA, at least three separate experiments, read-out: p38α inhibition (IC50 values), inhibition of TNFα release. On the procedure:
LPS-Stimulated PBMC TNFα Release Assay.
Peripheral Blood Mononuclear Cells (PBMCs) were isolated from healthy human volunteer blood using a standard density gradient centrifugation technique. Citrated blood was placed onto Histopaque™ and centrifuged. The PBMCs were removed from the density gradient interface and washed in phosphate buffered saline (PBS). The PBMCs were suspended in RPMI 1640 medium (without serum), dispensed into a 96-well plate and incubated at 37° C. for 3 h in a humidified incubator. After incubation, the medium was replaced (with medium containing 1% foetal bovine serum), and the plate incubated at 37° C., for 1 h, in the presence of test compound or the appropriate vehicle. LPS (10 ng/ml), or an appropriate vehicle control, was then added to the cells, and the plate returned to the incubator for 18 h. Cell-free supernatants were removed and assayed for TNFα levels using an ELISA kit from R&D Systems.
A dose response curve to each test compound was performed and the effect of compound in each experiment was expressed as a percentage inhibition of the control TNFα release. Dose response curves were plotted and compound potency (IC50) was determined. Compounds were tested in at least three separate experiments.
For orientation: ELISA stands for enzyme-linked immunosorbent assay.

Structures can show the parent of a compound that is named as a salt.

The record followed here is US9029373B2, “Kinase inhibitors” (Chiesi Farmaceutici S.p.A., priority 2011, dated 2015).

T1 sequence (Q16539 whole entry): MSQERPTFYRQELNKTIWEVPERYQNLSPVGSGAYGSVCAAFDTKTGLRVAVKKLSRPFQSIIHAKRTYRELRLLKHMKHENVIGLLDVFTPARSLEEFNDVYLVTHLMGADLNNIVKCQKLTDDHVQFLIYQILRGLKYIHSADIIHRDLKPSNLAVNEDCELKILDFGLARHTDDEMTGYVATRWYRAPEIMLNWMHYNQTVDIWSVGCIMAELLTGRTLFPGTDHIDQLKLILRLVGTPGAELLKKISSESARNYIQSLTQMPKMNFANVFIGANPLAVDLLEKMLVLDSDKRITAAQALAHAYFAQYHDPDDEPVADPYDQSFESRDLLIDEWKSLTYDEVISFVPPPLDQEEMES

As a reminder, the IC50 is the midpoint of a concentration-inhibition curve. For the molecule `CC(C)c1nnc2ccc(O[C@@H]3CC[C@H](NC(=O)Nc4cc(C(C)(C)C)nn4C4CCNCC4)c4ccccc43)cn12` [Example 16, 1-(5-tert-Butyl-2-piperidin-4-yl-2H-pyrazol-3-yl)-3-[(1S,4R)-4-(3-isopropyl-[1,2,4]triazolo[4,3-a]pyridin-6-yloxy)-1,2,3,4-tetrahydro-naphthalen-1-yl]-urea], the IC50 in experiment [1] is below 10 nM.

As to `CC(C)c1nnc2ccc(O[C@@H]3CC[C@H](NC(=O)Nc4cc(C(C)(C)C)nn4-c4ccc(CO)cc4)c4ccccc43)cn12` [Example 11, 1-[5-tert-Butyl-2-(4-hydroxymethyl-phenyl)-2H-pyrazol-3-yl]-3-[(1S,4R)-4-(3-isopropyl-[1,2,4]triazolo[4,3-a]pyridin-6-yloxy)-1,2,3,4-tetrahydro-naphthalen-1-yl]-urea], the IC50 in experiment [1] and in experiment [2] was below 10 nM throughout.

Regarding `CC(C)(C)c1cc(NC(=O)N[C@H]2CC[C@@H](Oc3ccc4nnc(-c5ccccc5Cl)n4c3)c3ccccc32)n(CCO)n1` [Example 31, 1-[5-tert-Butyl-2-(2-hydroxy-ethyl)-2H-pyrazol-3-yl]-3-{(1S,4R)-4-[3-(2-chloro-phenyl)-[1,2,4]triazolo[4,3-a]pyridin-6-yloxy]-1,2,3,4-tetrahydro-naphthalen-1-yl}-urea], the IC50 in experiment [1] and in experiment [2] was below 10 nM each time.

As for `CC(C)c1nnc2ccc(O[C@@H]3CC[C@H](NC(=O)Nc4cc(C(C)(C)C)nn4-c4cccc(CN5CCC(F)(F)CC5)c4)c4ccccc43)cn12` [Example 12, 1-{5-tert-Butyl-2-[3-(4,4-difluoro-piperidin-1-ylmethyl)-phenyl]-2H-pyrazol-3-yl}-3-[(1S,4R)-4-(3-isopropyl-[1,2,4]triazolo[4,3-a]pyridin-6-yloxy)-1,2,3,4-tetrahydro-naphthalen-1-yl]-urea], the IC50 is below 10 nM in experiment [1] and 10 to 100 nM in experiment [2].

Turning to `CC(C)(C)c1cc(NC(=O)N[C@H]2CC[C@@H](Oc3ccc4nnc(-c5c(Cl)cccc5Cl)n4c3)c3ccccc32)n(CCO)n1` [Example 26, 1-[5-tert-Butyl-2-(2-hydroxy-ethyl)-2H-pyrazol-3-yl]-3-{(1S,4R)-4-[3-(2,6-dichloro-phenyl)-[1,2,4]triazolo[4,3-a]pyridin-6-yloxy]-1,2,3,4-tetrahydro-naphthalen-1-yl}-urea], the IC50 in experiment [1] and in experiment [2] was below 10 nM throughout.

Turning to `CC(C)c1nnc2ccc(O[C@@H]3CC[C@H](NC(=O)Nc4cc(C(C)(C)C)nn4-c4cccc(N5CCOCC5)c4)c4ccccc43)cn12` [Example 23, 1-[5-tert-Butyl-2-(3-morpholin-4-yl-phenyl)-2H-pyrazol-3-yl]-3-[(1S,4R)-4-(3-isopropyl-[1,2,4]triazolo[4,3-a]pyridin-6-yloxy)-1,2,3,4-tetrahydro-naphthalen-1-yl]-urea], the IC50 in experiment [1] and in experiment [2] was below 10 nM throughout.

For the molecule `CC(C)(C)c1cc(NC(=O)N[C@H]2CC[C@@H](Oc3ccc4nnc(-c5ccccc5Cl)n4c3)c3ccccc32)n(CCN2CCOCC2)n1` [Example 32, 1-[5-tert-Butyl-2-(2-morpholin-4-yl-ethyl)-2H-pyrazol-3-yl]-3-{(1S,4R)-4-[3-(2-chloro-phenyl)-[1,2,4]triazolo[4,3-a]pyridin-6-yloxy]-1,2,3,4-tetrahydro-naphthalen-1-yl}-urea formate salt], the IC50 in experiment [1] and in experiment [2] was below 10 nM in each case.

Turning to `CC(C)c1nnc2ccc(O[C@@H]3CC[C@H](NC(=O)Nc4cc(C(C)(C)C)nn4C)c4cc(F)ccc43)cn12` [Example 19, 1-(5-tert-Butyl-2-methyl-2H-pyrazol-3-yl)-3-[(1S,4R)-7-fluoro-4-(3-isopropyl-[1,2,4]triazolo[4,3-a]pyridin-6-yloxy)-1,2,3,4-tetrahydro-naphthalen-1-yl]-urea], the IC50 is below 10 nM in experiment [1] and 10 to 100 nM in experiment [2].

Regarding `CC(C)c1nnc2ccc(O[C@@H]3CC[C@H](NC(=O)Nc4cc(C(C)(C)C)nn4C4CCN(C)CC4)c4ccccc43)cn12` [Example 17, 1-[5-tert-Butyl-2-(1-methyl-piperidin-4-yl)-2H-pyrazol-3-yl]-3-[(1S,4R)-4-(3-isopropyl-[1,2,4]triazolo[4,3-a]pyridin-6-yloxy)-1,2,3,4-tetrahydro-naphthalen-1-yl]-urea], the IC50 is below 10 nM in experiment [1] and 100 to 1000 nM in experiment [2].

For the molecule `Cc1ccc(-n2cc(NC(=O)N[C@H]3CC[C@H](Oc4ccc5nnc(C(C)C)n5c4)c4ccccc43)cn2)cc1` [Example 6, 1-[(1S,4S)-4-(3-Isopropyl-[1,2,4]triazolo[4,3-a]pyridin-6-yloxy)-1,2,3,4-tetrahydro-naphthalen-1-yl]-3-(1-p-tolyl-1H-pyrazol-4-yl)-urea], in experiment [1], the 50% inhibitory concentration (IC50) fell in the range of 100 to 500 nM.

For the molecule `Cc1ccc(-n2nccc2NC(=O)N[C@H]2CC[C@@H](Oc3ccc4nnc(C(C)C)n4c3)c3ccccc32)cc1` [Example 20, 1-[(1S,4R)-4-(3-Isopropyl-[1,2,4]triazolo[4,3-a]pyridin-6-yloxy)-1,2,3,4-tetrahydro-naphthalen-1-yl]-3-(2-p-tolyl-2H-pyrazol-3-yl)-urea], the IC50 in experiment [1] is 100 to 500 nM.

Consider `CC(C)(C)c1cc(NC(=O)N[C@H]2CC[C@@H](Oc3ccc4nnc(-c5c(Cl)cccc5Cl)n4c3)c3ccccc32)n(CCN2CCOCC2)n1` [Example 27, 1-[5-tert-Butyl-2-(2-morpholin-4-yl-ethyl)-2H-pyrazol-3-yl]-3-{(1S,4R)-4-[3-(2,6-dichloro-phenyl)-[1,2,4]triazolo[4,3-a]pyridin-6-yloxy]-1,2,3,4-tetrahydro-naphthalen-1-yl}-urea formate salt], for which the IC50 in experiment [1] and in experiment [2] was below 10 nM in each case.

As for `CC(C)c1nnc2ccc(O[C@@H]3CC[C@H](NC(=O)Nc4cc(C(C)(C)C)nn4-c4ccc5cn(CCN6CCOCC6)nc5c4)c4ccccc43)cn12` [Example 25, 1-{5-tert-Butyl-2-[2-(2-morpholin-4-yl-ethyl)-2H-indazol-6-yl]-2H-pyrazol-3-yl}-3-[(1S,4R)-4-(3-isopropyl-[1,2,4]triazolo[4,3-a]pyridin-6-yloxy)-1,2,3,4-tetrahydro-naphthalen-1-yl]-urea], the IC50 in experiment [1] was below 10 nM.

For the molecule `CC(C)c1nnc2ccc(O[C@H]3CC[C@H](NC(=O)Nc4cc(C(C)(C)C)nn4-c4ccc(C#N)cc4)c4ccccc43)cn12` [Example 14, 1-[5-tert-Butyl-2-(4-cyano-phenyl)-2H-pyrazol-3-yl]-3-[(1S,4S)-4-(3-isopropyl-[1,2,4]triazolo[4,3-a]pyridin-6-yloxy)-1,2,3,4-tetrahydro-naphthalen-1-yl]-urea], the IC50 is 10 to 100 nM in experiment [1] and below 10 nM in experiment [2].

`CC(C)c1nnc2ccc(O[C@@H]3CC[C@H](NC(=O)Nc4cc(C(C)(C)C)nn4CCO)c4ccccc43)cn12` [Example 10, 1-[5-tert-Butyl-2-(2-hydroxy-ethyl)-2H-pyrazol-3-yl]-3-[(1S,4R)-4-(3-isopropyl-[1,2,4]triazolo[4,3-a]pyridin-6-yloxy)-1,2,3,4-tetrahydro-naphthalen-1-yl]-urea]: in experiment [2], the IC50 is 10 to 100 nM.

For `CC(C)c1nnc2ccc(O[C@@H]3CC[C@H](NC(=O)Nc4cc(C(C)(C)C)nn4-c4ccc(OCCN5CCN(C)CC5)cc4)c4ccccc43)cn12` [Example 13, 1-(5-tert-Butyl-2-{4-[2-(4-methyl-piperazin-1-yl)-ethoxy]-phenyl}-2H-pyrazol-3-yl)-3-[(1S,4R)-4-(3-isopropyl-[1,2,4]triazolo[4,3-a]pyridin-6-yloxy)-1,2,3,4-tetrahydro-naphthalen-1-yl]-urea, formic acid salt], the IC50 in experiment [2] was 100 to 1000 nM.

As to `CC(C)c1nnc2ccc(O[C@@H]3CC[C@H](NC(=O)Nc4cc(C(C)(C)C)nn4-c4ccc5cnn(CCN6CCOCC6)c5c4)c4ccccc43)cn12` [Example 24, 1-{5-tert-Butyl-2-[1-(2-morpholin-4-yl-ethyl)-1H-indazol-6-yl]-2H-pyrazol-3-yl}-3-[(1S,4R)-4-(3-isopropyl-[1,2,4]triazolo[4,3-a]pyridin-6-yloxy)-1,2,3,4-tetrahydro-naphthalen-1-yl]-urea], the half-maximal inhibitory concentration (IC50) in experiment [1] is below 10 nM.

Consider `CC(C)c1nnc2ccc(O[C@@H]3CC[C@H](NC(=O)Nc4cnn(C(C)(C)C)c4)c4cc(F)ccc43)cn12` [Example 21, 1-(1-tert-Butyl-1H-pyrazol-4-yl)-3-[(1S,4R)-7-fluoro-4-(3-isopropyl-[1,2,4]triazolo[4,3-a]pyridin-6-yloxy)-1,2,3,4-tetrahydro-naphthalen-1-yl]-urea], for which the IC50 in experiment [1] was below 10 nM.
